Source: patent US20020165283A1, “Preservative blends containing quaternary ammonium compounds” (LONZA INC., priority 2001, published 2002)

System: S. aureus, P. aeruginosa, and E. coli
Test: Mixed bacterial challenge of preserved anionic protein shampoo samples (plate counts)
Format: cell-based
Description: Each anionic shampoo sample in Table 1 below was tested as follows. A standardized mixed bacterial solution was prepared according to the following procedure. 3 agar stabs of S. aureus (ATCC#6538), P. aeruginosa (ATCC#9027), and E. coli (ATCC #8739) were separately incubated at about 35° C. for about 24 hours. Each stab was then washed with 3 mL of sterile 0.85% saline solution. The washes of the 3 stabs were pooled together to form an organism mixture. The absorbance of the organism mixture at 530 nm was adjusted to about 1.00 by adding saline. The spectrometer was calibrated with a saline blank. A 5 mL aliquot of the organism mixture was mixed together to produce the standardized mixed bacterial solution. Then, 40 g of each shampoo sample was inoculated with 0.2 mL of the standardized mixed bacterial solution and mixed. 1 g of the mixture was added to a sterile 20×150 mm screw cap test tube. 9 mL of sterile D/E neutralizer broth was added to the test tube and mixed to form a 10^−1 dilution,. Serial dilutions were prepared through to a 10^−6 dilution with phosphate buffered water. The serial dilutions were plated onto Tryptic Soy Agar and incubated for 2 days at about 35° C. Bacteria counts were performed after 0 and 14 days.
The anionic protein shampoo composition was comprised of 35% by weight of sodium lauryl ether sulfate; 25% by weight of triethanolamine lauryl sulfate; 3% by weight coconut diethanolamide (cocamide DEA); 1% by weight of hydrolyzed collagen, available as Polypro 5000™ from Hormel Foods of Austin, Minn.; and 36% by weight of deionized water.
The sodium dehydroacetate monohydrate, sodium salicylate, and Hyamine® 1622 shampoo samples were prepared by mixing the appropriate amounts of the preservatives and the aforementioned anionic protein shampoo composition and heating the mixture to about 50° C. for about 15 minutes.
The procedure described in Example 1 was repeated with the anionic shampoos in Table 3 below. The bacterial counts were performed after 0 and 7 days. The dehydroacetic acid (available from Lonza Inc. of Fair Lawn, N.J.) and Hyamine® 1622 shampoo samples were prepared by mixing the appropriate amounts of the preservatives and the anionic protein shampoo composition and heating the mixture to about 50° C. for about 15 minutes.
The procedure described in Example 1 was repeated with the anionic shampoos in Table 5 below. The salicylic acid (available from Spectrum Chemical of New Brunswick, N.J.) and Hyamine® 1622 shampoo samples were prepared by mixing the appropriate amounts of the preservatives and the anionic protein shampoo composition and heating the mixture to about 50° C. for 15 minutes.

[1] = Table 1, 0.5% by weight of preservative alone
[2] = Table 1, 1.0% by weight of preservative alone
[3] = Table 5, 0.2% of preservative alone

**Q.** How did the “S. aureus, P. aeruginosa, and E. coli (cfu/g) Day 0” value [1] turn out when `CC(=O)c1c([O-])cc(C)oc1=O.O.[Na+]` [Sodium Dehydroacetate Monohydrate, Sodium dehydroacetate monohydrate] was run?
**A.** 3.0 × 10^6 cfu/g

**Q.** And the “S. aureus, P. aeruginosa, and E. coli (cfu/g) Day 14” value [1]?
**A.** 4.0 × 10^3 cfu/g

**Q.** Which “S. aureus, P. aeruginosa, and E. coli (cfu/g) Day 0” value [2] does the source give for `O=C([O-])c1ccccc1O.[Na+]` [Sodium Salicylate, Sodium salicylate] here?
**A.** 3.0 × 10^6 cfu/g

**Q.** What about the “S. aureus, P. aeruginosa, and E. coli (cfu/g) Day 14” value [2] of the same compound?
**A.** 5.0 × 10^2 cfu/g

**Q.** With `CC(=O)C1C(=O)C=C(C)OC1=O` (centres unmarked) [Dehydroacetic Acid, dehydroacetic acid] as the compound, how does the “S. aureus, P. aeruginosa, and E. coli (cfu/g) Day 0” value (Table 3, 0.2% of preservative alone) read?
**A.** 2.5 × 10^6 cfu/g

**Q.** And the “S. aureus, P. aeruginosa, and E. Coli (cfu/g) Day 7” value (Table 3, 0.2% of preservative alone, Day 7)?
**A.** 4.4 × 10^4 cfu/g

**Q.** What does the source list for `O=C(O)c1ccccc1O` [Salicylic Acid, salicylic acid]?
**A.** S. aureus, P. aeruginosa, and E. coli (cfu/g) Day 0 [3]: 3.1 × 10^6 cfu/g; S. aureus, P. aeruginosa, and E. coli (cfu/g) Day 14 [3]: 6.5 × 10^6 cfu/g
